Results as given in PMC8056227, “Deverra tortuosa (Desf.) DC from Saudi Arabia as a new source of marmin and furanocoumarins derivatives with α-glucosidase, antibacterial and cytotoxic activities” (Heliyon, 2021).

Legend:
[1] = test system: Escherichia. coli: ATCC 25922; parameters: method as in Tsassi et al., 2010; settings: previous studies on marmin; ref Tsassi et al., 2010; cited from earlier work
α-glucosidase = assay: α-Glucosidase inhibitory activity (PNPG substrate); assay type: biochemical; settings: pH 6.8, 37 °C, 30 min
Protocol: (2013)]. The substrate P-nitrophenyl-α-D-glucopyranoside (PNPG) was used for this experiment. Dimethyl sulfoxide (DMSO) was used to prepare different concentrations of the compounds (10–1000 μM). […] Afterwards, 40 μL of PNPG solution (0.375 mM) prepared in phosphate buffer (pH = 6.8) was added to the mixture and then incubated (37 °C for 30 min). 80 μL of Na2CO3 (0.2 M) prepared in phosphate buffer was added to the mixture. The absorbance was measured at 405 nm, and the measurement was replicated 3 times. The percentage of inhibition (%) reflects the α-glucosidase inhibitory activity and was calculated by formula (I):(I) α-glucosidase inhibition activity (%) = [(Acontrol – Asample)/Acontrol] × 100where Asample is the absorbance (405 nm) in the presence of the isolated compound and Acontrol is the absorbance (405 nm) of the control (A control consists of 20 μL potassium phosphate buffer instead of α-glucosidase solution).

[2] = test system: MCF-7 (breast cancer) cells; assay: MTT cytotoxicity assay, MCF-7; assay type: cell-based; settings: Homo sapiens, MCF7, 72 h, read-out: percentage of inhibition, MCF-7
Protocol: (§1) In the present study, two cancer cell lines were tested: HCT116 (colorectal carcinoma) and MCF-7 (breast cancer) (American Type Culture Collection, USA). Fetal calf serum (FCS: 10 %) and L-glutamine (2 mM) were used to make complete growth medium to conserve the cell lines (RPMI: Roswell Park Memorial Institute, France). Cell lines were incubated at 37 °C under atmosphere conditions of CO2 (5%). All tests were performed when the cells reached 80% confluence, and a trypan blue exclusion assay was used to test the viability of the cell lines ([Louis and Siegel, 2011]).
The cytotoxicity of the isolated compounds against HCT116 (colorectal carcinoma) and MCF-7 (breast cancer) cells was evaluated spectrophotometrically through an MTT assay. The assay was performed in 96-well microtiter plates ([Bekir et al., 2013]). The concentrations of HCT-116 and MCF-7 cells were fixed at 10 × 10^3 and 12 × 10^3 cells/well, respectively. The adherent cells were incubated overnight (37 °C) in a 5% enriched CO2 atmosphere. […] After removing the medium, incubated cells (37 °C) were mixed with 50 μL of MTT solution (3 mg/mL in phosphate-buffered saline, PBS) for 20–40 min. The […] proceeded by adding 80 μL of 100% DMSO. The measurement of the obtained reaction was taken spectrophotometrically at 540 nm. As a positive control, Doxorubicin, a conventional anticancer drug, was used. Cell viability was measured using formula II:II % Inhibition = […]where Abs control is the absorbance measured of the total cell activity as described without any inhibition; Abs blank control is the absorbance of MTT substrate; and Abs sample is the absorbance of each inhibitor compound sample.

[3] = test system: HCT116 (colorectal carcinoma) cells; assay: MTT cytotoxicity assay, HCT116; assay type: cell-based; settings: Homo sapiens, HCT-116, 72 h, read-out: percentage of inhibition, HCT-116
Protocol: as §1
The cytotoxicity of the isolated compounds against HCT116 (colorectal carcinoma) and MCF-7 (breast cancer) cells was evaluated spectrophotometrically through an MTT assay. The assay was performed in 96-well microtiter plates ([Bekir et al., 2013]). The concentrations of HCT-116 and MCF-7 cells were fixed at 10 × 10^3 and 12 × 10^3 cells/well, respectively. The adherent cells were incubated overnight (37 °C) in a 5% enriched CO2 atmosphere. […] Cell viability was measured using formula II:II % Inhibition = 100∗[(Abs control – Abs blank control)/(Abs sample- Abs blank sample)]where Abs control is the absorbance measured of the total cell activity as described without any inhibition; Abs blank control is the absorbance of MTT substrate; and Abs sample is the absorbance of each inhibitor compound sample.

[4] = test system: Proteus mirabilis: ATCC 14153; assay: Antibacterial well diffusion, P. mirabilis; assay type: cell-based; parameters: dose or concentration left out as unconfirmed
From the text: (§2) ATCC strains (American Type Culture Collection) were purchased from BD (Becton, Dickinson and Company). These strains were primarily activated in brain heart infusion broth and then grown on nonselective media nutrient agar (NA). A total of 7 bacterial strains (Escherichia. coli: ATCC 25922, Klebsiella pneumonia: ATCC 700603, Proteus mirabilis: ATCC 14153, Salmonella typhimurium: ATCC 14028, Pseudomonas aeruginosa: ATCC 254992, Staphylococcus aureus: ATCC 254996 and Enterococcus faecalis: ATCC 29212) were tested for antibacterial activity.
(§3) The 0.5 Macfarland standards were used to prepare the bacterial inoculum from log phase bacterial growth. Muller-Hinton agar (MHA) media plates were prepared aseptically in a safety cabinet; the medium was used to evaluate antibacterial activity. Sterile cork borer was used to make five wells (6 mm). MHA medium was swabbed with fresh culture (24 h ATCC bacterial strains). […] As a positive control, 15 μg of tetracycline was used and the negative control consists of 50 μL DMSO. The test was conducted with 3 replications. The plates were incubated according to Clinical and Laboratory Standards Institute guidelines ([CLSI 2017]) and the experiments were carried out aerobically at 35–37 °C for 18–20 h. The diameter of the inhibition zone around the wells was measured using a ruler, and the mean and standard deviation were calculated for three readings.

[5] = test system: Escherichia. coli: ATCC 25922; assay: Antibacterial well diffusion, E. coli; assay type: cell-based; parameters: dose or concentration left out as unconfirmed; settings: ATCC25922, range stated over 3 compounds and 3 strains
From the text: as §2
(§4) The 0.5 Macfarland standards were used to prepare the bacterial inoculum from log phase bacterial growth. Muller-Hinton agar (MHA) media plates were prepared aseptically in a safety cabinet; the medium was used to evaluate antibacterial activity. Sterile cork borer was used to make five wells (6 mm). MHA medium was swabbed with fresh culture (24 h ATCC bacterial strains). 50 μL of the tested compounds (0.5 mg/mL) prepared in DMSO were dispensed in the wells. As a positive control, 15 μg of tetracycline was used and the negative control consists of 50 μL DMSO. The test was conducted with 3 replications. The plates were incubated according to Clinical and Laboratory Standards Institute guidelines ([CLSI 2017]) and the experiments were carried out aerobically at 35–37 °C for 18–20 h. The diameter of the inhibition zone around the wells was measured using a ruler, and the mean and standard deviation were calculated for three readings.

[6] = test system: Salmonella typhimurium: ATCC 14028; assay: Antibacterial well diffusion, S. typhimurium; assay type: cell-based; parameters: dose or concentration left out as unconfirmed
From the text: as §2, §3

[7] = test system: Enterococcus faecalis: ATCC 29212; assay: Antibacterial well diffusion, E. faecalis; assay type: cell-based; parameters: dose or concentration left out as unconfirmed
From the text: as §2, §3

[8] = test system: Pseudomonas aeruginosa: ATCC 254992; assay: Antibacterial well diffusion, P. aeruginosa; assay type: cell-based; parameters: dose or concentration left out as unconfirmed; settings: ATCC254992, range stated over 3 compounds and 3 strains
From the text: as §2, §4

[9] = test system: Klebsiella pneumonia: ATCC 700603; assay: Antibacterial well diffusion, K. pneumonia; assay type: cell-based; parameters: zone of inhibition: dose or concentration left out as unconfirmed; settings: for antibacterial activity in words, K. pneumonia: 1 mg/mL; for zone of inhibition: Klebsiella pneumoniae, ATCC700603, range stated over 3 compounds and 3 strains
From the text: as §2, §3

Structure (SMILES): C/C(=C\COc1ccc2ccc(=O)oc2c1)CC[C@@H](O)C(C)(C)O [Compound 1, Marmin]
- inhibition zone, E. coli (previous studies) [1]: 9.5 mm
- IC50 (α-glucosidase): 186 ± 8.3 µM
- inhibition at 100 µM [2]: 17.1%
- inhibition at 100 µM [3]: 41.8%

Structure (SMILES): COc1c2ccoc2c(OC)c2oc(=O)ccc12 [Compound 5, Isopimpinellin]
- antibacterial activity in words, P. mirabilis [4]: did not seem to be active
- inhibition at 100 µM [2]: 30.6%
- zone of inhibition [5]: 6 to 12 mm
- antibacterial activity in words, S. typhimurium [6]: did not seem to be active
- antibacterial activity in words, E. faecalis [7]: did not seem to be active
- zone of inhibition [8]: 6 to 12 mm
- antibacterial activity in words, K. pneumonia [9]: did not seem to be active
- zone of inhibition [9]: 6 to 12 mm

Structure (SMILES): COc1c2ccoc2cc2oc(=O)ccc12 [Compound 4, Bergapten]
- antibacterial activity in words, P. mirabilis [4]: did not seem to be active
- zone of inhibition [5]: 6 to 12 mm
- antibacterial activity in words, S. typhimurium [6]: did not seem to be active
- antibacterial activity in words, E. faecalis [7]: did not seem to be active
- zone of inhibition [8]: 6 to 12 mm
- antibacterial activity in words, K. pneumonia [9]: did not seem to be active
- zone of inhibition [9]: 6 to 12 mm

Structure (SMILES): CC(C)=CCOc1c2ccoc2cc2oc(=O)ccc12 [Compound 3, Isoimperatorin]
- antibacterial activity in words, P. mirabilis [4]: did not seem to be active
- IC50 (α-glucosidase): 171 ± 7.6 µM
- inhibition at 100 µM [2]: 43.2%
- zone of inhibition [5]: 6 to 12 mm
- antibacterial activity in words, S. typhimurium [6]: did not seem to be active
- antibacterial activity in words, E. faecalis [7]: did not seem to be active
- zone of inhibition [8]: 6 to 12 mm
- antibacterial activity in words, K. pneumonia [9]: did not seem to be active
- zone of inhibition [9]: 6 to 12 mm

Structure (SMILES): CC(=CCOc1ccc2ccc(=O)oc2c1)CCC(O)C(C)(C)OC1OC(CO)C(O)C(O)C1O (stereo not drawn) [Compound 2, Pituranthoside]
- IC50 (α-glucosidase): 347 ± 11.2 µM
- inhibition at 100 µM [2]: 29.9%
- zone of inhibition ([6]; Salmonella enterica, read-out: inhibition zone (IZ), S. typhimurium): 21 mm
- inhibition at 100 µM [3]: 42.7%
- zone of inhibition ([7]; Enterococcus faecalis, ATCC29212, read-out: inhibition zone (IZ), E. faecalis): 22 mm
